Where “and” joins values, the source holds several entries; their conditions need not be identical. Identical values can stand only once. Like-named read-outs stand apart in the source and are kept apart here.
Tests used:
HcProRS [1] = system: HcProRS; parameters: method as in PMID 28501621; settings: ATP/PPi exchange assay in vitro; read-out: IC50, HcProRS inhibitory activity; cited from earlier work
HcProRS versus ThrRS = system: HcProRS versus ThrRS; parameters: method as in PMID 28501621; settings: reportedly; cited from earlier work
recombinant HcProRS = molecular target: T1, recombinant HcProRS (Homo sapiens, UniProt P07814); test: fluorescence-based thermal shift assay (TSA); format: binding; settings: for Tm with 1 mM L-Pro / Tm without L-Pro / ∆Tm without L-Pro / ∆Tm with 1 mM L-Pro: 100 µM compound; for Tm with 1 mM L-Pro / Tm without L-Pro / EC50 / ∆Tm without L-Pro / ∆Tm with 1 mM L-Pro: 3.45 µM HcProRS; for Tm with 1 mM L-Pro: reference Tm with Pro only 60.20; for Tm without L-Pro / ∆Tm without L-Pro: absence of Pro; for Tm without L-Pro: reference Tm of HcProRS 56.15; for ∆Tm without L-Pro: difference of Tm with and without compound; for ∆Tm with 1 mM L-Pro: versus HcProRS with 1 mM Pro only; for effect on Tm (in words): full datasets, with and without Pro; for fold better (lower) EC50 compared with 4d: relative to 4d
T1 construct: SUMO (N, cleaved yes); made in house; host or cells: E. coli Rosetta 2 (DE3) pLysS
T1 sequence (P07814 1001-1512): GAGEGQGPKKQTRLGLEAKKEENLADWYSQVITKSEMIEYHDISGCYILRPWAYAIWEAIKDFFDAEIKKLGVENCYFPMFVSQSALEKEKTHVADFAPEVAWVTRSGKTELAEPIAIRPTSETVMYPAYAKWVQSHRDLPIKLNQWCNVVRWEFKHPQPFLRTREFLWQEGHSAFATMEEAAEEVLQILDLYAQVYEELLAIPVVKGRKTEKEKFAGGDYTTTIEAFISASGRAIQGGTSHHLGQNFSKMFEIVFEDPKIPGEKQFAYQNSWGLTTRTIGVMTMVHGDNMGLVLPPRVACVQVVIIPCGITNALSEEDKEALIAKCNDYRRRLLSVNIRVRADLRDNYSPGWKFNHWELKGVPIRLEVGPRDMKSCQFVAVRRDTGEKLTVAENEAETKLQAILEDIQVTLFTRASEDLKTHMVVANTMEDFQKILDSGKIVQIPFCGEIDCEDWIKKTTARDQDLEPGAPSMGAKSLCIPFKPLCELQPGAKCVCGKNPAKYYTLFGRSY
Procedure: Compound binding usually helps to stabilize the protein due to protein-ligand interactions, resulting in an increase of the melting temperature (Tm) of the target protein during the thermal denaturation process. Each compound was pre-tested at 100 µM concentration against 3.45 µM HcProRS in the absence and presence of 1 mM Pro. The ∆Tm was calculated based on the difference between the Tm values of HcProRS with and without compound. […] In the presence of the natural substrate Pro, the Tm of HcProRS increased by 4 °C. […] In a second-tier characterization, the Tm-based EC50 values of these five hits were determined. […] This is in good agreement with the prior reported improved binding affinity and inhibitory activity of 2a in the presence of Pro when compared to the corresponding values obtained without Pro [16].
A total of 0.2 mg/mL HcProRS (corresponding to 3.45 µM) was incubated with various concentrations of different compounds in the absence or presence of 1 mM L-Pro with 1x thermal shift dye (Life Technologies, California, USA) in reaction buffer containing 50 mM HEPES pH 7.0, 150 mM KCl and 10% (v/v) ethylene glycol. Aliquots (20 µL) were transferred to a 96-well PCR plate in triplicate. After centrifugation to remove air bubbles, the plate was measured in Applied Biosystems® Protein Thermal Shift machine and subjected to a thermal gradient from 4 °C to 95 °C with the increasing rate of 0.05 °C/s. The fluorescence was detected by Protein Thermal Shift™ Software (Life Technologies, California, USA). Data analysis was performed by Boltzmann sigmoidal fitting to calculate melting temperature (Tm).
Figure S2. Dose-response melting curves of HcProRS in the presence of compound and 1 mM Pro. The melting temperature (Tm) at each compound concentration was determined by TSA with 3.45 µM of HcProRS. The reported EC50 values are based on the fitted curves. All reactions were performed in triplicate, the average values and standard errors are shown.
(1 picture or pasted object on this page, not shown here)

HcProRS [2] = molecular target: HcProRS; parameters: method as in PMID 28501621; settings: in the presence of Pro; cited from earlier work
[3] = 1 mM Pro, read-out: EC50 (Tm-based) with 1 mM L-Pro

Row | Structure (SMILES) | Tm with 1 mM L-Pro (recombinant HcProRS; 1 mM Pro) | Tm without L-Pro (recombinant HcProRS) | EC50 (recombinant HcProRS; [3]) | ∆Tm without L-Pro (recombinant HcProRS) | ∆Tm with 1 mM L-Pro (recombinant HcProRS) | also measured
1 | O=C(NC1Cc2ccccc2C1)c1nccnc1NC(=O)C1CCCCC1 [2a, 3-(cyclohexanecarboxamido)-N-(2,3-dihydro-1H-inden-2-yl)pyrazine-2-carboxamide, reference compound] | 73.35 °C | 63.15 °C | 3.74 ± 0.67 µM |  |  | IC50 (HcProRS [1]): 0.012 µM; selectivity for HcProRS versus ThrRS (HcProRS versus ThrRS): 2500 fold; EC50 (recombinant HcProRS; no Pro, read-out: EC50 (Tm-based) in the absence of Pro): 30.3 ± 3.63 µM; Kd (HcProRS [2]): 0.00076 µM
2 | Nc1nccnc1C(=O)O [3-NH2-POA, 3-aminopyrazinoic acid, reference compound] | 59.50 °C | 55.87 °C |  | −0.28 °C | −0.70 °C | effect on Tm (in words) (recombinant HcProRS): no effect on Tm
3 | O=C(NCc1ccc(F)cc1)c1nccnc1NCc1ccc(F)cc1 [3a] | 58.21 °C | 55.25 °C |  | −0.90 °C | −1.99 °C | 
4 | O=C(NCc1ccccc1Cl)c1nccnc1NCc1ccccc1Cl [3b] | 64.92 °C | 56.05 °C | 3.77 ± 0.85 µM | −0.10 °C | +4.72 °C | fold lower EC50 relative to 3c (recombinant HcProRS; TSA EC50 with 1 mM Pro, relative to 3c): 2 fold; fold lower EC50 compared with 4h (recombinant HcProRS; TSA EC50 with 1 mM Pro, relative to 4h): 3.6 fold
5 | Cc1ccccc1CNC(=O)c1nccnc1NCc1ccccc1C [3c] | 62.72 °C | 55.25 °C | 7.34 ± 1.66 µM | −0.90 °C | +2.52 °C | fold better (lower) EC50 compared with 4d (recombinant HcProRS; TSA EC50 with 1 mM Pro): 12.4 fold
6 | O=C(O)c1cnccn1 [POA, pyrazinoic acid, reference compound] | 59.06 °C | 55.52 °C |  | −0.63 °C | −1.14 °C | effect on Tm (in words) (recombinant HcProRS): no effect on Tm
7 | NC(=O)c1cnccn1 [PZA, pyrazinamide] | 59.04 °C | 56.06 °C |  | −0.09 °C | −1.16 °C | effect on Tm (in words) (recombinant HcProRS): no effect on Tm
8 | O=C(O)[C@@H]1CCCN1 [Pro, proline] |  |  |  |  |  | increase of Tm of HcProRS by natural substrate Pro (recombinant HcProRS; 1 mM Pro, no compound): 4 °C

Further lines, with some results ahead:

Row | Tm with 1 mM L-Pro (recombinant HcProRS; 1 mM Pro) | Tm without L-Pro (recombinant HcProRS) | EC50 (recombinant HcProRS; [3]) | ∆Tm without L-Pro (recombinant HcProRS) | ∆Tm with 1 mM L-Pro (recombinant HcProRS) | Structure (SMILES) | also measured
9 | 59.36 °C | 55.80 °C |  | −0.35 °C | −0.84 °C | NC(=O)c1nccnc1NCc1ccccc1 [4a] | 
10 | 60.42 °C | 55.38 °C |  | −0.77 °C | +0.22 °C | NC(=O)c1nccnc1NCc1cccc(Cl)c1 [4b] | 
11 | 57.47 °C | 54.57 °C |  | −1.58 °C | −2.73 °C | NC(=O)c1nccnc1NCc1ccc(Cl)c(Cl)c1 [4c] | 
12 | 63.33 °C | 55.91 °C | 91.1 ± 18.4 µM | −0.24 °C | +3.13 °C | Cc1ccccc1CNc1nccnc1C(N)=O [4d] | 
13 | 58.70 °C | 55.06 °C |  | −1.09 °C | −1.5 °C | NC(=O)c1nccnc1NCc1ccc(Cl)cc1 [4e] | 
14 | 58.33 °C | 56.34 °C |  | +0.19 °C | −1.87 °C | COc1ccc(CNc2nccnc2C(N)=O)cc1 [4f] | 
15 | 59.09 °C | 55.76 °C |  | −0.39 °C | −1.11 °C | Cc1ccc(CNc2nccnc2C(N)=O)cc1 [4g] | 
16 | 62.47 °C | 57.04 °C | 13.6 ± 3.27 µM |  | +2.27 °C | NC(=O)c1nccnc1NCc1ccccc1Cl [4h] | fold better (lower) EC50 compared with 4d (recombinant HcProRS; TSA EC50 with 1 mM Pro): 6 fold and 7 fold
17 | 60.30 °C | 55.46 °C |  | −0.69 °C | +0.10 °C | NC(=O)c1nccnc1NCc1ccccc1F [4i] | 
18 | 67.12 °C | 58.13 °C | 15.3 ± 1.04 µM |  | +6.92 °C | NC(=O)c1nccnc1NCc1ccccc1C(F)(F)F [4j] | fold better (lower) EC50 compared with 4d (recombinant HcProRS; TSA EC50 with 1 mM Pro): 6 fold and 7 fold
19 | 58.48 °C | 56.08 °C |  | −0.07 °C | −1.72 °C | COc1ccc(CNc2nccnc2C(N)=O)c(OC)c1 [4k] | 

— PMC8346053, “Towards Novel 3-Aminopyrazinamide-Based Prolyl-tRNA Synthetase Inhibitors: In Silico Modelling, Thermal Shift Assay and Structural Studies” (International Journal of Molecular Sciences, 2021)
